Laboratory results: patent publication US10206878B2, “Lyophilized formulation of TAT-NR2B9C with acetylation scavenger” (NoNO Inc., priority 2014, dated 2019)
No end group written: not given here.

Test: Solubility study of TAT-NR2B9C, visual analysis
Type: physicochemical
Conditions: pH 6.5, 35, 50, 75 and 100 mg/mL, t=0 and t=24 hours
Method: Due to the relatively low Tg temperatures that would likely require a longer lyophilization cycle to dry, we looked at a wider range of standard bulking agents and looked to reduce the fill volume into the container closure system so that there would be a reduced volume of liquid to lyophilize. […] Samples were visually analyzed at 35, 50, 75 and 100 mg/mL. All solutions were clear at t=0 and t=24 hours. […] A wide range of quantities may be required in a vial, but 270 mg would provide a […] dose for a 100 kg patient. Assuming the target reconstitution concentration for patient administration is still 20 mg/mL (but can be from 1 mg/ml to 100 mg/ml), then a 20-mL lyophilization vial containing 270 mg of TAT-NR2B9C can be used with a reconstitution volume of 13.5 mL. Therefore, optimal volumes of liquid for lyophilization of TAT-NR2B9C in the vial would be between 2.5 mL and 10 mL.

## YGRKKRRQRRRKLSSIESDV [TAT-NR2B9C]
In Histidine+Trehalose
  solubility, visual: clear
In Histidine
  solubility, visual: clear
